These results are taken from ChEMBL document CHEMBL4177532, “Antibacterial Nerol Cinnamates from the Australian Plant Eremophila longifolia” (J Nat Prod, 2017).

Each structure is given as a SMILES string. In brackets after ≈: the same amount, converted by molar mass.

For data set [1], the system named is Escherichia coli. Briefly: Antimicrobial activity against Escherichia coli ATCC 25922 by microdilution plate based method. It counts as functional.
Data set [2] relates to Acinetobacter baumannii. Briefly: Antimicrobial activity against Acinetobacter baumannii ATCC 19606 by microdilution plate based method. It counts as functional. Particulars: ATCC 19606 = CIP 70.34 = JCM 6841. For orientation: In broth dilution the organism is exposed to a series of concentrations in liquid medium.
Data set [3] deals with Staphylococcus aureus. The experiment in a line: microbe, parasite or virus in culture. Type of data set: functional. Particulars: ATCC 43300.
Description: Antimicrobial activity against methicillin-sensitive Staphylococcus aureus ATCC 43300 by microdilution plate based method
The test system of data set [4] is Staphylococcus aureus. Briefly: Antimicrobial activity against glycopeptide intermediate resistant Staphylococcus aureus NARSA NRS 17 by microdilution plate based method. Type of data set: functional.
Data set [5] has as its system Staphylococcus aureus. The experiment in a line: Antimicrobial activity against vancomycin-resistant Staphylococcus aureus NARSA VRS 1 by microdilution plate based method. Type of data set: functional.
For data set [6], the system named is Streptococcus pneumoniae. Briefly: Antimicrobial activity against multidrug resistant Streptococcus pneumoniae ATCC 700677 by microdilution plate based method. Type of data set: functional.
Data set [7] deals with Enterococcus faecium. Briefly: Antimicrobial activity against vancomycin-resistant and VanA expressing Enterococcus faecium ATCC 51559 by microdilution plate based method. It counts as functional.
Data set [8] has as its system Candida albicans. The experiment in a line: Antimicrobial activity against Candida albicans ATCC 90028 by microdilution plate based method. It counts as functional.
A short description of data set [9]: Cytotoxicity against HEK293 cells assessed as reduction in cell viability incubated for 24 hrs by resazurin based assay. As to conditions: human. On the technique in general: Alamar Blue is a resazurin reagent that responds to reducing activity.
Data set [10] concerns Cryptococcus neoformans. Briefly: Antimicrobial activity against Cryptococcus neoformans ATCC 208821 by microdilution plate based method. Type of data set: functional.
In data set [11] the test system is HepG2. Briefly: Cytotoxicity against human HepG2 cells assessed as reduction in cell viability incubated for 24 hrs by resazurin based assay. It counts as functional. Particulars: HepG2, 24 h.
Data set [12] can be described thus: Drug metabolism assessed as compound auto-oxidation. Type of data set: physicochemical.
The test system of data set [13] is Staphylococcus aureus. Briefly: Antimicrobial activity against Staphylococcus aureus. It counts as functional.
The subject of data set [14] is Escherichia coli. Briefly: Antimicrobial activity against Escherichia coli. It counts as functional.
In data set [15] the test system is Trypanosoma brucei brucei. Briefly: Antitrypanosomal activity against Trypanosoma brucei brucei GUTat 3.1 incubated for 72 hrs by alamar blue dye based assay. Type of data set: functional, organism-based. Particulars: GUTat 3.1, 72 h.
Data set [16] deals with MRC5. Briefly: Cytotoxicity against human MRC5 cells. Type of data set: cell-based.

With `COc1cc(/C=C/C(=O)OC/C=C(/C)CCC=C(C)C)ccc1O`, the MIC in [1] was over 64 µg/mL; in data set [2], over 64 µg/mL; in data set [3] it was 16 µg/mL (≈ 48.4 µM); in data set [4] it was 16 µg/mL (≈ 48.4 µM); in data set [5], 16 to 32 µg/mL (≈ 48.4 to 96.8 µM); in data set [6] it was 8 to 16 µg/mL (≈ 24.2 to 48.4 µM). Further, the MIC in data set [7] is 8 µg/mL (≈ 24.2 µM); in [8] it was over 64 µg/mL; in data set [10] it was 32 to 64 µg/mL (≈ 96.8 to 194 µM). In data set [9], the CC50 at 24 h came to 273 µM. The CC50 in [11] was 300 µM. Further, the Drug metabolism entry in data set [12] is listed as “Metabolite_Detected”.
Take `CC(C)=CCC/C(C)=C/COC(=O)/C=C/c1ccccc1`: the MIC in data set [13] and in data set [14] was 5000 µg/mL (≈ 17600 µM) each time.
As for `CC(C)=CCC/C(C)=C\COC(=O)/C=C/c1ccc(O)cc1`, the MIC in data set [1] was over 64 µg/mL; in data set [2] it was over 64 µg/mL; in [3], over 64 µg/mL; in [4] it was over 64 µg/mL; in data set [5], over 64 µg/mL; in data set [6], 64 µg/mL (≈ 213 µM). Besides, the MIC in data set [7] was 8 µg/mL (≈ 26.6 µM); in data set [8], over 64 µg/mL; in data set [10] it was 32 to 64 µg/mL (≈ 107 to 213 µM). Further, in data set [9], the CC50 at 24 h stood at 273 µM. Further, the CC50 in [11] is 157 µM. The Drug metabolism entry in data set [12] is given as “Metabolite_Detected”.
As for `CC[C@H](C)CCCCC(=O)N[C@@H](CCN)C(=O)N[C@H](C(=O)N[C@@H](CCN)C(=O)N[C@H]1CCNC(=O)[C@H]([C@@H](C)O)NC(=O)[C@H](CCN)NC(=O)[C@H](CCN)NC(=O)[C@H](CC(C)C)NC(=O)[C@@H](Cc2ccccc2)NC(=O)[C@H](CCN)NC1=O)[C@@H](C)O.O=S(=O)(O)O.O=S(=O)(O)O`, the MIC in [1] and in data set [2] was 0.3 µg/mL each time.
As to `CCCCCCCCCC(=O)N[C@@H](Cc1c[nH]c2ccccc12)C(=O)N[C@@H](CC(N)=O)C(=O)N[C@@H](CC(=O)O)C(=O)N[C@@H]1C(=O)NCC(=O)N[C@@H](CCCN)C(=O)N[C@@H](CC(=O)O)C(=O)N[C@H](C)C(=O)N[C@@H](CC(=O)O)C(=O)NCC(=O)N[C@H](CO)C(=O)N[C@@H]([C@H](C)CC(=O)O)C(=O)N[C@@H](CC(=O)c2ccccc2N)C(=O)O[C@@H]1C` [DAPTOMYCIN], the MIC in data set [3] is 4 µg/mL (≈ 2.47 µM); in data set [4], 16 to 32 µg/mL (≈ 9.87 to 19.7 µM); in data set [5], 8 µg/mL (≈ 4.94 µM); in data set [6], 8 µg/mL (≈ 4.94 µM); in [7], 32 µg/mL (≈ 19.7 µM).
Take `CC(C)=CCC/C(C)=C\CC/C(C)=C\COC(=O)/C=C/c1ccc(O)c(O)c1` [FARNESYL CAFFEATE]: the IC50 turned out to be 0.23 µg/mL (≈ 0.598 µM) in data set [15] and 13.3 µg/mL (≈ 34.6 µM) in [16].
Consider `OC(Cn1cncn1)(Cn1cncn1)c1ccc(F)cc1F` [FLUCONAZOLE], for which the MIC in data set [8] is 0.3 to 0.5 µg/mL (≈ 0.98 to 1.63 µM); in data set [10] it was 8 µg/mL (≈ 26.1 µM).
Consider `CC/C(=C(\c1ccccc1)c1ccc(OCCN(C)C)cc1)c1ccccc1` [TAMOXIFEN], for which, in data set [9], the CC50 at 24 h is […]. Further, in data set [11], the CC50 was determined as […].
Consider `CN[C@H](CC(C)C)C(=O)N[C@H]1C(=O)N[C@@H](CC(N)=O)C(=O)N[C@H]2C(=O)N[C@H]3C(=O)N[C@H](C(=O)N[C@H](C(=O)O)c4cc(O)cc(O)c4-c4cc3ccc4O)[C@H](O)c3ccc(c(Cl)c3)Oc3cc2cc(c3O[C@@H]2O[C@H](CO)[C@@H](O)[C@H](O)[C@H]2O[C@H]2C[C@](C)(N)[C@H](O)[C@H](C)O2)Oc2ccc(cc2Cl)[C@H]1O.Cl` [VANCOMYCIN HYDROCHLORIDE], for which the MIC is over 32 µg/mL in [4], over 32 µg/mL in data set [5], 2 µg/mL in data set [6] and over 32 µg/mL in data set [7].

A word on the CC50: it is the concentration at which the toxic effect on the cells reaches its halfway point. For orientation: IC50 means the point on the concentration scale where inhibition reaches its midpoint.
